In publication PMC8364686, “Safety, tolerability, pharmacokinetics and pharmacodynamics of single oral doses of BI 187004, an inhibitor of 11beta-hydroxysteroid dehydrogenase-1, in healthy male volunteers with overweight or obesity” (Clinical Diabetes and Endocrinology, 2021):

System: hypothalamus–pituitary–adrenal axis hormones
Assay: Hormones of the HPA axis: difference from baseline
Format: in vivo, human
Experimental: Safety and tolerability of BI 187004 were assessed in a descriptive way using the following investigations: recording of adverse events, clinical laboratory parameters (haematology, coagulation, enzymes, substrates, electrolytes, hormones, and urinalysis), vital signs (blood pressure, puls rate), 12-lead ECG (electrocardiogram) with special attention to QTc prolongation, and physical examination (occurrence of findings).

N#Cc1ccc2c(c1)[C@H]1CCCN(C(=O)c3ccc4[nH]cnc4c3)[C@H]1C2 [BI 187004]
DHEA-s mean difference from baseline (10 mg single oral dose, 24:00): 1.2 µmol/L
SHBG mean difference from baseline (10 mg single oral dose, 24:00): 3.4 nmol/L
Total Testosterone mean difference from baseline (10 mg single oral dose, 24:00): -0.2 nmol/L
ACTH mean difference from baseline (10 mg single oral dose, 96:00): -1.35 pmol/L
Androstenedione mean difference from baseline (10 mg single oral dose, 96:00): -3.4 nmol/L
Cortisol mean difference from baseline (10 mg single oral dose, 96:00): -128.8 nmol/L
DHEA-s mean difference from baseline (10 mg single oral dose, 96:00): 1.9 µmol/L
SHBG mean difference from baseline (10 mg single oral dose, 96:00): 0.2 nmol/L
Total Testosterone mean difference from baseline (10 mg single oral dose, 96:00): -2.0 nmol/L
ACTH mean difference from baseline (20 mg single oral dose, 24:00): 1.53 pmol/L
Androstenedione mean difference from baseline (20 mg single oral dose, 24:00): 3.7 nmol/L
Cortisol mean difference from baseline (20 mg single oral dose, 24:00): 18.4 nmol/L
DHEA-s mean difference from baseline (20 mg single oral dose, 24:00): 2.2 µmol/L
SHBG mean difference from baseline (20 mg single oral dose, 24:00): 2.9 nmol/L
Total Testosterone mean difference from baseline (20 mg single oral dose, 24:00): -1.3 nmol/L
ACTH mean difference from baseline (20 mg single oral dose, 96:00): -0.58 pmol/L
Androstenedione mean difference from baseline (20 mg single oral dose, 96:00): 3.8 nmol/L
Cortisol mean difference from baseline (20 mg single oral dose, 96:00): -34.1 nmol/L
DHEA-s mean difference from baseline (20 mg single oral dose, 96:00): 2.1 µmol/L
SHBG mean difference from baseline (20 mg single oral dose, 96:00): 1.3 nmol/L
Total Testosterone mean difference from baseline (20 mg single oral dose, 96:00): -1.0 nmol/L
ACTH mean difference from baseline (40 mg single oral dose, 24:00): 1.44 pmol/L
Androstenedione mean difference from baseline (40 mg single oral dose, 24:00): 3.7 nmol/L
Cortisol mean difference from baseline (40 mg single oral dose, 24:00): -48.8 nmol/L
DHEA-s mean difference from baseline (40 mg single oral dose, 24:00): 1.7 µmol/L
SHBG mean difference from baseline (40 mg single oral dose, 24:00): 0.6 nmol/L
Total Testosterone mean difference from baseline (40 mg single oral dose, 24:00): -0.5 nmol/L
ACTH mean difference from baseline (40 mg single oral dose, 96:00): -0.01 pmol/L
Androstenedione mean difference from baseline (40 mg single oral dose, 96:00): 0.1 nmol/L
Cortisol mean difference from baseline (40 mg single oral dose, 96:00): -75.5 nmol/L
DHEA-s mean difference from baseline (40 mg single oral dose, 96:00): 2.3 µmol/L
SHBG mean difference from baseline (40 mg single oral dose, 96:00): -1.8 nmol/L
Total Testosterone mean difference from baseline (40 mg single oral dose, 96:00): -0.8 nmol/L
ACTH mean difference from baseline (80 mg single oral dose, 24:00): 4.69 pmol/L
Androstenedione mean difference from baseline (80 mg single oral dose, 24:00): 8.1 nmol/L
Cortisol mean difference from baseline (80 mg single oral dose, 24:00): 102.6 nmol/L
DHEA-s mean difference from baseline (80 mg single oral dose, 24:00): 2.6 µmol/L
SHBG mean difference from baseline (80 mg single oral dose, 24:00): 2.1 nmol/L
Total Testosterone mean difference from baseline (80 mg single oral dose, 24:00): 0.8 nmol/L
ACTH mean difference from baseline (80 mg single oral dose, 96:00): 1.36 pmol/L
Androstenedione mean difference from baseline (80 mg single oral dose, 96:00): 0.5 nmol/L
Cortisol mean difference from baseline (80 mg single oral dose, 96:00): -64.4 nmol/L
DHEA-s mean difference from baseline (80 mg single oral dose, 96:00): 2.4 µmol/L
SHBG mean difference from baseline (80 mg single oral dose, 96:00): -1.3 nmol/L
Total Testosterone mean difference from baseline (80 mg single oral dose, 96:00): 0.6 nmol/L
ACTH mean difference from baseline (160 mg single oral dose, 24:00): 1.34 pmol/L
Androstenedione mean difference from baseline (160 mg single oral dose, 24:00): 2.6 nmol/L
Cortisol mean difference from baseline (160 mg single oral dose, 24:00): -49.2 nmol/L
DHEA-s mean difference from baseline (160 mg single oral dose, 24:00): 1.6 µmol/L
SHBG mean difference from baseline (160 mg single oral dose, 24:00): 1.9 nmol/L
Total Testosterone mean difference from baseline (160 mg single oral dose, 24:00): 1.0 nmol/L
ACTH mean difference from baseline (160 mg single oral dose, 96:00): 0.05 pmol/L
Androstenedione mean difference from baseline (160 mg single oral dose, 96:00): 1.5 nmol/L
Cortisol mean difference from baseline (160 mg single oral dose, 96:00): -69.9 nmol/L
DHEA-s mean difference from baseline (160 mg single oral dose, 96:00): 2.2 µmol/L
SHBG mean difference from baseline (160 mg single oral dose, 96:00): -0.8 nmol/L
Total Testosterone mean difference from baseline (160 mg single oral dose, 96:00): 2.4 nmol/L
ACTH mean difference from baseline (240 mg single oral dose, 24:00): 0.87 pmol/L
Androstenedione mean difference from baseline (240 mg single oral dose, 24:00): 5.0 nmol/L
Cortisol mean difference from baseline (240 mg single oral dose, 24:00): -7.3 nmol/L
DHEA-s mean difference from baseline (240 mg single oral dose, 24:00): 1.6 µmol/L
SHBG mean difference from baseline (240 mg single oral dose, 24:00): 2.3 nmol/L
Total Testosterone mean difference from baseline (240 mg single oral dose, 24:00): -2.8 nmol/L
ACTH mean difference from baseline (240 mg single oral dose, 96:00): -0.27 pmol/L
Androstenedione mean difference from baseline (240 mg single oral dose, 96:00): 2.7 nmol/L
Cortisol mean difference from baseline (240 mg single oral dose, 96:00): -5.1 nmol/L
DHEA-s mean difference from baseline (240 mg single oral dose, 96:00): 2.3 µmol/L
SHBG mean difference from baseline (240 mg single oral dose, 96:00): 2.5 nmol/L
Total Testosterone mean difference from baseline (240 mg single oral dose, 96:00): -2.4 nmol/L
ACTH mean difference from baseline (360 mg single oral dose, 24:00): 1.30 pmol/L
Androstenedione mean difference from baseline (360 mg single oral dose, 24:00): 3.2 nmol/L
Cortisol mean difference from baseline (360 mg single oral dose, 24:00): -40.0 nmol/L
DHEA-s mean difference from baseline (360 mg single oral dose, 24:00): 1.2 µmol/L
SHBG mean difference from baseline (360 mg single oral dose, 24:00): 0.9 nmol/L
Total Testosterone mean difference from baseline (360 mg single oral dose, 24:00): -0.3 nmol/L
ACTH mean difference from baseline (360 mg single oral dose, 96:00): 0.38 pmol/L
Androstenedione mean difference from baseline (360 mg single oral dose, 96:00): -0.3 nmol/L
Cortisol mean difference from baseline (360 mg single oral dose, 96:00): -132.9 nmol/L
DHEA-s mean difference from baseline (360 mg single oral dose, 96:00): 1.6 µmol/L
SHBG mean difference from baseline (360 mg single oral dose, 96:00): -2.2 nmol/L
Total Testosterone mean difference from baseline (360 mg single oral dose, 96:00): 0.7 nmol/L
